Measurements as given in ChEMBL document CHEMBL4725259 (Bioorg Med Chem, 2020).
pIC50: −log10 of the molar value. Activity calls are given as the source filed them. No cut-off for these calls is given here.

What was measured:
[1] = biological target: T1, Oxytocin receptor (Homo sapiens, UniProt P30559); test: Antagonist activity at human OXTR expressed in CHO-K1 cells by PathHunter beta-arrestin assay; assay type: cell-based
T1 sequence (P30559 whole entry): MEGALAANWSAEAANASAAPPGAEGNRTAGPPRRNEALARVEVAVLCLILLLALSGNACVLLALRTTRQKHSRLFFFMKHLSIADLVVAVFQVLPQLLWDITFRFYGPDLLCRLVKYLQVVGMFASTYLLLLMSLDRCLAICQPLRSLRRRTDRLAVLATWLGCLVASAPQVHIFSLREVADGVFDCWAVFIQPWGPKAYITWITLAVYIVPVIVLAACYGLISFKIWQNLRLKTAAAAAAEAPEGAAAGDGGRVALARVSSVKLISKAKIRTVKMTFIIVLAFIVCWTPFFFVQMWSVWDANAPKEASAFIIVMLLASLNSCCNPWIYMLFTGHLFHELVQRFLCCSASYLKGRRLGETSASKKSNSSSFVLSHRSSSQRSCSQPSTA

[2] = biological target: T2, C-C chemokine receptor type 8 (Homo sapiens, UniProt P51685); test: Agonist activity at human CCR8 expressed in CHO-K1 cells at 20 uM by PathHunter beta-arrestin assay relative to control; assay type: cell-based
[3] = biological target: T3, Vasopressin V2 receptor (Homo sapiens, UniProt P30518); test: Antagonist activity at human AVPR2 at 20 uM by PathHunter beta-arrestin assay relative to control
[4] = biological target: T4, CX3C chemokine receptor 1 (Homo sapiens) (UniProt P49238); test: Agonist activity at human CX3CR1 expressed in CHO-K1 cells at 20 uM by PathHunter beta-arrestin assay relative to control; assay type: cell-based
T4 sequence (whole entry): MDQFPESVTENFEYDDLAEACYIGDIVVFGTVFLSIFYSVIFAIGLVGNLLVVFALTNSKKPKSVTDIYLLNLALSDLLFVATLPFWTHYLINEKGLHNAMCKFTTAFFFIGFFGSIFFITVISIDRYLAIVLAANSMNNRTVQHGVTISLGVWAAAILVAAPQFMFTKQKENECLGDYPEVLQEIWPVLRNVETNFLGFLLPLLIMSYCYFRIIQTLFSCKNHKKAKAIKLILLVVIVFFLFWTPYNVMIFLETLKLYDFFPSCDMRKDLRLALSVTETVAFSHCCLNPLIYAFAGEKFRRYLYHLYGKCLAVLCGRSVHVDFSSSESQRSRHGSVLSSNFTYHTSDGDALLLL

[5] = biological target: T4, CX3C chemokine receptor 1 (Homo sapiens); test: Antagonist activity at human CX3CR1 expressed in CHO-K1 cells at 20 uM by PathHunter beta-arrestin assay relative to control; assay type: cell-based; details: filed as antagonist
[6] = tested on: U2OS; test: Antagonist activity at NPSR1B in human U2OS cells at 20 uM by PathHunter beta-arrestin assay relative to control; assay type: cell-based
[7] = biological target: T5, Oxytocin receptor (Homo sapiens) (UniProt P30559); test: Agonist activity at human OXTR expressed in CHO-K1 cells at 20 uM by PathHunter beta-arrestin assay relative to control; assay type: cell-based
T5 sequence (whole entry): T1 sequence (P30559 whole entry)

[8] = biological target: T6, C-C chemokine receptor type 3 (Homo sapiens) (UniProt P51677); test: Agonist activity at human CCR3 expressed in CHO-K1 cells at 20 uM by PathHunter beta-arrestin assay relative to control; assay type: cell-based
T6 sequence (whole entry): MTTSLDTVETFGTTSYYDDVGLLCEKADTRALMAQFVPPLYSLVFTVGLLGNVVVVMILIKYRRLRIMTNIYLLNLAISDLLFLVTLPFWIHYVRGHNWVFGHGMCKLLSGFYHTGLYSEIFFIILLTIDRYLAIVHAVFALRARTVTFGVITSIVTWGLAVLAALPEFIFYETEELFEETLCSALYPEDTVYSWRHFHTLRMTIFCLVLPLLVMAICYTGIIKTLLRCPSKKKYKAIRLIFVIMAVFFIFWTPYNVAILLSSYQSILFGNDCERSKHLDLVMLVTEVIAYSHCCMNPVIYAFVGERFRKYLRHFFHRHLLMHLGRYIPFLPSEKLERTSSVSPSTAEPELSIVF

[9] = biological target: T7, Follicle-stimulating hormone receptor (Homo sapiens) (UniProt P23945); test: Antagonist activity at human FSHR expressed in CHO-K1 cells at 20 uM by PathHunter beta-arrestin assay relative to control; assay type: cell-based; details: filed as antagonist
T7 sequence (whole entry): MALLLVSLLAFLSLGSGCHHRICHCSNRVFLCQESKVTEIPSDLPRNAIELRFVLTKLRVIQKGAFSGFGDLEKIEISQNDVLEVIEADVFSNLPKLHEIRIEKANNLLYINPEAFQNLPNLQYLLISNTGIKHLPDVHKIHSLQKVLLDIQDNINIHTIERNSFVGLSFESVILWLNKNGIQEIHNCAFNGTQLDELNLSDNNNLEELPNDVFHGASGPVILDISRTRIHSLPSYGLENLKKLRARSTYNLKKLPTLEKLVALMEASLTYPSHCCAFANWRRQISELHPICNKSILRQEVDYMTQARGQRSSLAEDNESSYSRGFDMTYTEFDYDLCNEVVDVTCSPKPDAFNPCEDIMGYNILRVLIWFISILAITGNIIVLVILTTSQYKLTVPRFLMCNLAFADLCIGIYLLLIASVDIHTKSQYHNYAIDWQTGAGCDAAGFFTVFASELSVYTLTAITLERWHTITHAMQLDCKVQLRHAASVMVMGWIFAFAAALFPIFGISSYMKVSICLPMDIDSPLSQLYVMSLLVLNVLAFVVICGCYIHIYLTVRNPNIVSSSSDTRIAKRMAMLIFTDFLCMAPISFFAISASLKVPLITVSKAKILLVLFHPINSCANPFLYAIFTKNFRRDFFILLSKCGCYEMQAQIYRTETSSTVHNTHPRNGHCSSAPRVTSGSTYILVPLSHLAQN

[10] = biological target: T8, Prolactin-releasing peptide receptor (Homo sapiens) (UniProt P49683); test: Agonist activity at human PRLHR expressed in CHO-K1 cells at 20 uM by PathHunter beta-arrestin assay relative to control; assay type: cell-based
T8 sequence (whole entry): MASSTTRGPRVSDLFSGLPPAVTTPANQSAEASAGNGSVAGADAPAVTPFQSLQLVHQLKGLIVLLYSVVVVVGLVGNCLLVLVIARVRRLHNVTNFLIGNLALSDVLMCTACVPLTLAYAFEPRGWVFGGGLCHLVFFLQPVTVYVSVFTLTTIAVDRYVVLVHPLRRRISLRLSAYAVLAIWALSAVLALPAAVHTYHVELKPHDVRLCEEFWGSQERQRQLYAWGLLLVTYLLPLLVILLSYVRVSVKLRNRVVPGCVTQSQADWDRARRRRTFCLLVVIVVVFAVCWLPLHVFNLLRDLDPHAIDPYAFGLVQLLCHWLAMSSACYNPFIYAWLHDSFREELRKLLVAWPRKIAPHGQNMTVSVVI

[11] = biological target: D(2) dopamine receptor (Homo sapiens) (UniProt P14416); test: Agonist activity at human DRD2L expressed in CHO-K1 cells at 20 uM by PathHunter beta-arrestin assay relative to control; assay type: cell-based
[12] = biological target: T9, C-X-C chemokine receptor type 4 (Homo sapiens, UniProt P61073); test: Agonist activity at human CXCR4 expressed in mouse C2C12 cells at 20 uM by PathHunter beta-arrestin assay relative to control; assay type: cell-based
[13] = biological target: T5, Oxytocin receptor (Homo sapiens); test: Antagonist activity at human OXTR expressed in CHO-K1 cells at 20 uM by PathHunter beta-arrestin assay relative to control; assay type: cell-based
[14] = tested on: U2OS; test: Agonist activity at NPSR1B in human U2OS cells at 20 uM by PathHunter beta-arrestin assay relative to control; assay type: cell-based
[15] = biological target: T3, Vasopressin V2 receptor; test: Agonist activity at human AVPR2 at 20 uM by PathHunter beta-arrestin assay relative to control
[16] = biological target: T7, Follicle-stimulating hormone receptor (Homo sapiens); test: Agonist activity at human FSHR expressed in CHO-K1 cells at 20 uM by PathHunter beta-arrestin assay relative to control; assay type: cell-based
[17] = biological target: T6, C-C chemokine receptor type 3 (Homo sapiens); test: Antagonist activity at human CCR3 expressed in CHO-K1 cells at 20 uM by PathHunter beta-arrestin assay relative to control; assay type: cell-based
[18] = biological target: D(2) dopamine receptor (Homo sapiens) (UniProt P14416); test: Antagonist activity at human DRD2L expressed in CHO-K1 cells at 20 uM by PathHunter beta-arrestin assay relative to control; assay type: cell-based
[19] = biological target: T8, Prolactin-releasing peptide receptor (Homo sapiens); test: Antagonist activity at human PRLHR expressed in CHO-K1 cells at 20 uM by PathHunter beta-arrestin assay relative to control; assay type: cell-based; details: filed as antagonist
[20] = biological target: T2, C-C chemokine receptor type 8; test: Antagonist activity at human CCR8 expressed in CHO-K1 cells at 20 uM by PathHunter beta-arrestin assay relative to control; assay type: cell-based; details: filed as antagonist
[21] = biological target: T9, C-X-C chemokine receptor type 4; test: Antagonist activity at human CXCR4 expressed in mouse C2C12 cells at 20 uM by PathHunter beta-arrestin assay relative to control; assay type: cell-based; details: filed as antagonist
[22] = biological target: T10, Prolactin-releasing peptide receptor (Homo sapiens, UniProt P49683); test: Antagonist activity at human PRLHR expressed in CHO-K1 cells by PathHunter beta-arrestin assay; assay type: cell-based
T10 sequence (P49683 whole entry): T8 sequence (whole entry)

[23] = Antagonist activity at NPSR1B in human U2OS cells by PathHunter beta-arrestin assay; assay type: cell-based
[24] = biological target: T11, Follicle-stimulating hormone receptor (Homo sapiens, UniProt P23945); test: Antagonist activity at human FSHR expressed in CHO-K1 cells by PathHunter beta-arrestin assay; assay type: cell-based
T11 sequence (P23945 whole entry): T7 sequence (whole entry)

T3 sequence (P30518 whole entry): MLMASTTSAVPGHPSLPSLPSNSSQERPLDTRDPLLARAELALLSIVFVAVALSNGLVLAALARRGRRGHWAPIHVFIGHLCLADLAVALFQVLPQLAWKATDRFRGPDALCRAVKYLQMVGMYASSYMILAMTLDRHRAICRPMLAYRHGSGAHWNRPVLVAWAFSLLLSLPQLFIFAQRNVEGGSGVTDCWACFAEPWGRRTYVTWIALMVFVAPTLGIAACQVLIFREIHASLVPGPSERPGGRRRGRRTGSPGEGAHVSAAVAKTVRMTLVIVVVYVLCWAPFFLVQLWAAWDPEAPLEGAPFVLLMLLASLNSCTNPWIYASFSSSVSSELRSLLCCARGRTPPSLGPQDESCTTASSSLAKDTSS
T2 sequence (P51685 whole entry): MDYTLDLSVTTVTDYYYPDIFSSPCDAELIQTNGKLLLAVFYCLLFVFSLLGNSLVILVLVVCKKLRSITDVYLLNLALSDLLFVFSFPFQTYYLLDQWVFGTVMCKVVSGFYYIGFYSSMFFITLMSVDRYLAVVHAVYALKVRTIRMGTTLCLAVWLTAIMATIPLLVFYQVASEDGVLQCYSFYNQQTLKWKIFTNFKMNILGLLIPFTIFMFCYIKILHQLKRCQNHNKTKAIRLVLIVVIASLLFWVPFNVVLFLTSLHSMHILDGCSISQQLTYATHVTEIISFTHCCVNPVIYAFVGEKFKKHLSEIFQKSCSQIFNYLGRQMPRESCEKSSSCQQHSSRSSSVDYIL
Sequence of D(2) dopamine receptor (Homo sapiens) (P14416 whole entry): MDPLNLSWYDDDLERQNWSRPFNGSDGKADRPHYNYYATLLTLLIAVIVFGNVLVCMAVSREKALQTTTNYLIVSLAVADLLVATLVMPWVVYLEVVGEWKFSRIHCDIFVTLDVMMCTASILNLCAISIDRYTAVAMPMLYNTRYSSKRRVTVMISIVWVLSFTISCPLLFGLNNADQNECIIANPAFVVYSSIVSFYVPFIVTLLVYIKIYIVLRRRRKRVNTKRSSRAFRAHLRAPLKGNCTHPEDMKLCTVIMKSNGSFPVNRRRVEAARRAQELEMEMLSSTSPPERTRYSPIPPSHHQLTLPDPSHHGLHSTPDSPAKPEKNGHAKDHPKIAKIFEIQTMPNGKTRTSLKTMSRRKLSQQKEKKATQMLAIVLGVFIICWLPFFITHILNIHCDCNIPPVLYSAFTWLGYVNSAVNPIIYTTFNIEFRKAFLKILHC
T9 sequence (P61073 whole entry): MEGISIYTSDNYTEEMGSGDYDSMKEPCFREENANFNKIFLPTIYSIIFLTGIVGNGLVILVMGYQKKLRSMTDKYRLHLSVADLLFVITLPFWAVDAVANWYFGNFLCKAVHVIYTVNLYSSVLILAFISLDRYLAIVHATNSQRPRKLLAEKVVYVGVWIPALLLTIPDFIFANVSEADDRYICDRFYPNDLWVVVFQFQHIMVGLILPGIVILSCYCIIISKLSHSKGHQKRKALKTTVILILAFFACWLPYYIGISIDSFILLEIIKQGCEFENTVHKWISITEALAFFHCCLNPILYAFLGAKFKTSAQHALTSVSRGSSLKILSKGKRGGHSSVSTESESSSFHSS

Compound	Activity [2]	Activity [4]	inhibition [5] [%]	Activity [7]	Activity [8]	inhibition [9] [%]	Activity [10]	Activity [11]	Activity [12]	Activity [14]	Activity [15]	Activity [16]	inhibition ([3]; filed as antagonist) [%]	inhibition [19] [%]	inhibition [20] [%]	inhibition [13] [%]	also measured
Cc1ccccc1N1CCN(S(=O)(=O)CC23CCC(C[C@@H]2NC(=O)[C@@H](N)CCS(C)(=O)=O)C3(C)C)CC1 (some centres undefined)	–	–	–	–	–	–	–	–	–	–	–	–	–	–	–	–	pIC50 [1]: 8.34
COC(=O)[C@@H]1[C@H]2C[C@H]3c4[nH]c5ccccc5c4CCN3C[C@@H]2CC[C@@H]1O	inactive	inactive	22	inactive	inactive	4	inactive	inactive	inactive	inactive	inactive	inactive	–	–	–	–	inhibition [3]: -1%; inhibition [6]: -3%; inhibition ([13]; filed as antagonist): 5%
COC(=O)[C@@H]1[C@H]2C[C@@H]3N(CC[C@@]34C(=O)N(c3cncc(OC)n3)c3ccccc34)C[C@@H]2CC[C@@H]1O	inactive	inactive	9	inactive	inactive	11	inactive	inactive	inactive	inactive	inactive	inactive	9	2	9	–	inhibition [17]: -7%; inhibition [18]: -8%
COC(=O)[C@@H]1[C@H]2C[C@@H](OCc3ccc(Br)cc3)c3[nH]c4ccccc4c3CCN(C#N)C[C@@H]2CC[C@@H]1O	inactive	inactive	53	inactive	inactive	94	inactive	inactive	inactive	inactive	inactive	inactive	1	82	78	-7	inhibition ([17]; filed as antagonist): 50%; inhibition [21]: 29%; inhibition ([18]; filed as antagonist): 10%; inhibition ([6]; filed as antagonist): 87%; pIC50 [22]: 5.31; pIC50 [23]: 4.99; pIC50 [24]: 5.10
COC(=O)[C@@H]1[C@H]2C[C@@H]([C@@]3(CCn4cc(CCCCO)nn4)C(=O)Nc4ccccc43)N(C#N)C[C@@H]2CC[C@@H]1O	inactive	inactive	11	inactive	inactive	2	inactive	inactive	inactive	inactive	inactive	inactive	1	9	5	0	–
COC(=O)[C@@H]1[C@H]2C[C@@H]3OCc4ccccc4-n4c3c(c3ccccc34)CCN(C#N)C[C@@H]2CC[C@@H]1O	inactive	inactive	20	inactive	inactive	5	inactive	inactive	inactive	inactive	inactive	inactive	16	5	15	–	inhibition ([17]; filed as antagonist): 2%; inhibition ([18]; filed as antagonist): 3%; inhibition ([13]; filed as antagonist): 27%
COC(=O)[C@@H]1[C@H]2C[C@H]3OCc4ccccc4-n4c3c(c3ccccc34)CCN(C#N)C[C@@H]2CC[C@@H]1O	inactive	inactive	9	inactive	inactive	12	inactive	inactive	inactive	inactive	inactive	inactive	–	–	10	0	inhibition [3]: -1%; inhibition [17]: -2%; inhibition [21]: 10%; inhibition [18]: -2%; inhibition ([6]; filed as antagonist): 1%
